Source: patent US6747009B2, “Peptidomimetic glutathione analogs” (Universiteit Leiden, priority 2002, dated 2004)
Numbered stars: 1 amine (or outer) side, 2 acyl side, 3 side chain; on linkers, the order of the positions; unused ones are H or OH. Square brackets hold non-standard residues; d marks the D form. Peptide text beside a SMILES is read from it. * marks the point of attachment. ξ: configuration not given here. γGlu = O=C(O)[C@H](CCC(=O)[*:2])N[*:1]; ξPhg = NC(C(=O)O)c1ccccc1; Bn = c1ccc(C*)cc1

Assays:
[1] = target: T1, human GSTP1-1 (Homo sapiens, UniProt P09211); test: GST inhibition assay (CDNB conjugation), Ki and % inhibition; format: biochemical; details: for inhibition at 50 µM: 1 mM GSH, 1 mM CDNB, 50 μM inhibitor, relative to non-inhibited rate
T1 construct: purchased PanVers Corporation (Madison, Wis., USA)
T1 sequence (P09211 2-210 limits assumed): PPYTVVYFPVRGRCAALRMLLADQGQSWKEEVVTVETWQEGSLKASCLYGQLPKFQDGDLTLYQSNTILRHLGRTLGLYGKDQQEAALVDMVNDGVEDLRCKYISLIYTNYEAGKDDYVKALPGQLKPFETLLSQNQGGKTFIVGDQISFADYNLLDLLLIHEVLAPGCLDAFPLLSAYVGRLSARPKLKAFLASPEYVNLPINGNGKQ
Protocol: (§1) Human recombinant GST isoenzymes A1-1, M1-1 and P1-1 were used for the GST inhibition assays. Experiments were performed according to Habig et al; (1974), J. Biol. Chem. 249, 7130-7139, modified for a 96-wells plate-reader assay. The purified human GST isoenzymes (10-20 ng/ml) were incubated with or without inhibitor (50 μM) in the presence of 8 different concentrations (50 μM-4 mM) GSH at 37° C. in 0.1 M potassium phosphate buffer pH 6.5/1 mM EDTA. The reaction was initiated by addition of CDNB in ethanol (final concentration 1 mM, 1% ethanol in assay mix), after which the formation of GS-DNB was spectrophotometrically monitored at 340 nm. Reaction rates were corrected for the non-enzymatic conjugate formation. Kt values (table 1) were determined using the Km, app method according to Kakkar et al. (1999), Drug Metab. Dispos. 27, 756-762; Kakkar et al. (2000), J. Pharmacol. Exp. Ther. 293, 861-869. Experiments were performed three times with quadruple measurements.

[2] = target: T2, human GSTA1-1 (Homo sapiens, UniProt P08263); test: GST inhibition assay (CDNB conjugation), Ki determination; format: biochemical; details: human recombinant GSTA1-1; ± SD; 50 μM inhibitor, 50 μM-4 mM GSH, 1 mM CDNB, pH 6.5
T2 construct: purchased PanVers Corporation (Madison, Wis., USA)
T2 sequence (P08263 1-222): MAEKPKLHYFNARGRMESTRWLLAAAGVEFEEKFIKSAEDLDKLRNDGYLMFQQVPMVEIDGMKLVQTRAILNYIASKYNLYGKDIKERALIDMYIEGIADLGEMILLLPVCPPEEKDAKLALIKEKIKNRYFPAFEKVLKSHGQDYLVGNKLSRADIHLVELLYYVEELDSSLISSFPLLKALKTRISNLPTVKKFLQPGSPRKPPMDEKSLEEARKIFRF
Protocol: as §1

[3] = target: T3, human GSTM1-1 (Homo sapiens, UniProt P09488); test: as above; format: biochemical; details: human recombinant GSTM1-1; ± SD; 50 μM inhibitor, 50 μM-4 mM GSH, 1 mM CDNB, pH 6.5
T3 construct: purchased PanVers Corporation (Madison, Wis., USA)
T3 sequence (P09488 2-218 limits assumed): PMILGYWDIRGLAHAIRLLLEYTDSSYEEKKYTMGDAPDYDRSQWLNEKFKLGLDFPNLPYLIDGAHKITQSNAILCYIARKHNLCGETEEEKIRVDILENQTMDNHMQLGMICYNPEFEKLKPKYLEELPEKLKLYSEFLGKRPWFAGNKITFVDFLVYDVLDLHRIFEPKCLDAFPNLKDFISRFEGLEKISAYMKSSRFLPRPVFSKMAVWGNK
Protocol: as §1

[4] = test system: bovine kidney γ-glutamyl transpeptidase; test: Stability towards γ-glutamyl transpeptidase (RP-HPLC disappearance of parent); format: in vitro ADME; details: pH 7.4
Protocol: Peptide isosteres were incubated with 0.25 mg/ml bovine γ-glutamyltranspeptidase in 0.1M Tris-HCl buffer pH=7.4. At the appropriate time-point a sample (100 μL) was taken, heat inactivated and stored on ice until HPLC analysis. Disappearance of the indicated compounds was determined by RP-HPLC. Open markers indicate γGT sensitive compounds, closed markers are γGT stabilized.
The rate of degradation was determined by incubating 250 μM of GluPhg-Benzyl, RedPhg-Benzyl and UtPhg-Benzyl at 37° C. with 0.25 mg/ml bovine kidney γ-glutamyl transpeptidase in 0.1 M Tri-HCl buffer, pH 7.4, supplemented with 0.1 mM EDTA. At selected time-intervals, a 100 μL sample was taken, heat-inactivated, and stored on ice until HPLC-analysis. Analysis was performed by RP-HPLC on an Altech Platinum C18 column, using 50 mM ammonium acetate buffer pH 3.8, supplemented with 10-20% acetonitrile (optimized for the various peptide analogues) as eluent. Disappearance of the parent peak was determined by UV absorbency at […]. Remaining percentage of the parent compounds was determined as ratio of peak areas relative to the initial (t=0min) value.
The rate of degradation was determined by incubating 250 μM of the GS-EA analogues at 37° C. with 0.25 mg/ml bovine kidney γ-glutamyltranspeptidase in 0.1M Tris-HCl buffer, pH=7.4, supplemented with 0.1mM EDTA. At selected time-intervals, a 100 μL sample was taken, heat-inactivated, and stored on ice until HPLC-analysis. Analysis was performed by RP-HPLC on an Alltech Platinum C18 column, using 50mM ammonium acetate buffer pH=3.8, supplemented with 10-20% acetonitrile (optimized for the various peptide analogues) as eluent. Disappearance of the […] peak and emergence of the corresponding dipeptide-EA conjugate was detected by UV absorbency at 270 nm. Remaining percentage of the parent compounds was determined as ratio of peak areas relative to the initial (t=0 min) value. Results were corrected for non-peptidase mediated degradation of the ethacrynic acid conjugates.

[5] = test system: rat liver cytosolic GSTs (S100); test: Inhibition of rat liver cytosolic GSTs (S100), CDNB conjugation; format: biochemical; details: S100, 1 mM GSH, 1 mM CDNB, pH 6.5, six inhibitor concentrations
Protocol: Inhibition of GST mediated CDNB-conjugation was tested at pH=6.5, in the presence of non-limiting concentrations of GSH (1 mM) and CDNB (1 mM). The shown data are averages of three separate determinations. For clarity, error-bars were not included. […] Open markers with dotted lines indicate γGT sensitive compounds, closed markers with closed lines are γGT stabilized structures.
Freshly isolated rat livers were emulsified in 0.1M KCl using a Potter-Elvehjem homogeniser. After initial centrifugation for 30 minutes at 9000 g, the resulting supernatant was subjected to a second centrifugation for 75 minutes at 10^5 g. The cytosolic protein containing supernatant (S100) was used for the GST inhibition experiments. GST inhibition experiments were performed. All solutions were kept on ice until use. Various concentrations of the inhibitions were incubated at 37° C. with rat liver cytosol (1 μl, containing […] of total protein) in sodium-phosphate buffer, pH 6.5, supplemented with 0.1 mM EDTA and 1 mM GSH. Reaction was started by adding 4 μL CDNB in ethanol (final concentration=1 mM, maximal ethanol content=2% v/v). Formation of the GS-CDNB conjugate was followed at 340 nm for 5 minutes. Initial reaction velocities were corrected for the spontaneous (not GST catalyzed) reaction rates. Inhibition was determined as percentage of the non-inhibited reaction rate. Experiments were performed three times with duplicate measurements.
GST inhibition was tested at six concentrations of the GS-EA mimics.

[6] = test system: JNK in MTLn3 cells; test: JNK activation (phospho-JNK immunoblot); format: cell-based; details: MTLn3/Neo and MTLn3/GSTπ; 50 μM Et2-RP-Bzl, Et2-UrP-Bzl or 20 μM TER199; 8 hours
Protocol: Confluent monolayers of VCREMS, MTLn3/Neo (3 clones) and MTLn3/GSTπ (3 clones) cells in 12-well culture dishes were exposed for 8 or 16 hours to 50 μM of Et2-RP-Bzl, Et2-UrP-Bzl or 20 μM TER199 (all di-ethyl esters) in full medium at 37° C. Cells were then washed and subsequently scraped in ice-cold PBS. For MTLn3 cells, suspensions of the three different neo and three different GSTπ clones were combined. After centrifugation (10 min, 250 g, 4° C.), the cells were lysed by ultrasonication in cold TSB (10 mM Tris, 250 mM sucrose, 1 mM EGTA, pH 7.4), containing protease inhibitors (50 mM Na3VO4, 10 μg/ml leupeptin, 10 μg/ml pepstain, 1 mM phenylmethylsulfonylfuloride). Protein concentration was determined using the Bradford protein assay, using IgG as a standard.
For GSTπ blotting, non-reducing and non-denaturing conditions were used to keep GSTP in its original (homodimer) state. JNK blots were subjected to standard Western blotting sample pre-treatment protocols. Twenty micrograms of total cellular protein was separated by SDS-polyacrylamide gel electrophoresis and subsequently transferred to polyvinylidene difluoride membrane (Millipore). […] Active JNK was detected by an alkaline phosphatase coupled goat antibody, which was visualized with the Tropix kit (PerkinElmer Life Sciences).

[7] = test system: MTLn3/Neo cells; test: Modulation of thiotepa cytotoxicity (cell proliferation by DNA content); format: cell-based; details: read-out: IC50 value of thiotepa, No Inh
Protocol: (§2) Cells (MCF7, VCREMS, 3 MTLn3/neo clones and 3 MTLn3/GSTP1-1 clones) were seeded at 10^4 cells/well in 24-wells polyethylene culture dishes. […] Various concentrations (3 μM-10 mM) of thiotepa (in serum-free medium) were added. After 4 hrs at 37° C., cells were washed twice with PBS, and subsequently incubated for 72 hours in culture medium (in absence of inhibitor). The cells were then rinsed once with BPS and lysed by repeated freeze-thaw cycles in 200 μl water, followed by homogenization on a rotary shaker. […] Stained DNA was measured by spectrofluorometry (excitation: 360 nm, emission 465 nm). A calibration curve of calf thymus DNA was used to determine total DNA quantities. Growth curves were calculated using the IC50 module of the enzyme kinetics program Grafit (version 3.0, Erithacus Software Ltd.).

[8] = test system: VCREMS cells; test: as above; format: cell-based; details: read-out: IC50 value of thiotepa, No Inh
Protocol: as §2

[9] = test system: MCF7 cells; test: as above; format: cell-based; details: Homo sapiens, MCF7, read-out: IC50 value of thiotepa, No Inh
Protocol: as §2

[10] = test system: MTLn3/GSTπ cells; test: as above; format: cell-based; details: read-out: IC50 value of thiotepa, No Inh
Protocol: as §2

[11] = 250 μM compound, 0.25 mg/ml bovine kidney γGT, 37° C.

N[C@@H](CCC(=O)N[C@@H](CSCc1ccccc1)C(=O)NC(C(=O)O)c1ccccc1)C(=O)O (stereo partly drawn) [GluPhg-Benzyl (I), γ-L-glutamyl-L-cysteinyl(benzyl)-D-phenylglycine, reference compound] (γGlu-Cys(Bn)-[ξPhg]-OH)
Ki [1]: 0.8 ± 0.3 µM
Ki [2]: 23 ± 6 µM
Ki [3]: 21 ± 4 µM

CCC(CSC[C@H](NC(=O)CC[C@H](N)C(=O)O)C(=O)NCC(=O)O)C(=O)c1ccc(OCC(=O)O)c(Cl)c1Cl (stereo partly shown) [I, γ-Glu[Cys(EA)-Gly-OH]—OH, reference compound]
stability towards γGT (in words) [4, 11]: cleaved rapidly
time to complete degradation of the GSH backbone by γGT [4, 11]: ≤ 20 min

CN(C(=O)CC[C@H](N)C(=O)O)[C@@H](CS)C(=O)NCC(=O)O [III, γ-Glu[MeCys-Gly-OH]—OH]
inhibition of rat liver cytosolic GSTs (in words) [5]: a decrease in inhibition was seen

N[C@@H](CCCN[C@@H](CSCc1ccccc1)C(=O)NC(C(=O)O)c1ccccc1)C(=O)O (stereo partly shown) [RedPhg-Benzyl (II)]
Ki [1]: 6 ± 3 µM
inhibition at 50 µM [1]: 81%
Ki [2]: 55 ± 11 µM
Ki [3]: 29 ± 6 µM

CCOC(=O)[C@@H](N)CCC(=O)N[C@@H](CSCc1ccccc1)C(=O)N[C@@H](C(=O)OCC)c1ccccc1 [TER199]
phospho-JNK (JNK1, JNK2) formation [6]: a small band appeared just below the 54 kDa active JNK2 band

N[C@@H](COC(=O)N[C@@H](CSCc1ccccc1)C(=O)NC(C(=O)O)c1ccccc1)C(=O)O (stereo partly shown) [UrPhg-Benzyl (III), H-Glo[Cys(Bzl)-Phg-OH]-OH]
Ki [1]: 3 ± 2 µM
inhibition at 50 µM [1]: 93%
Ki [2]: 29 ± 4 µM
Ki [3]: 16 ± 2 µM

S=P(N1CC1)(N1CC1)N1CC1 [thiotepa]
IC50 [7]: 164 ± 9 µM
IC50 [8]: 2840 ± 1100 µM
IC50 [9]: 699 ± 50 µM
IC50 [10]: 219 ± 21 µM

H-Glo[Cys(EA)-Gly-OH]—OH [VI]
inhibition of rat liver cytosolic GSTs (in words) [5]: efficient γGT stable inhibitors

H-Glu[Ψ(CH2NH)-Cys(EA)-Gly-OH]—OH [V]
inhibition of rat liver cytosolic GSTs (in words) [5]: efficient γGT stable inhibitors

γ-Glu[2-amino-1-mercapto(S-EA)-6-hexanoic acid]-OH [IV]
inhibition of rat liver cytosolic GSTs (in words) [5]: poor inhibitor of cytosolic GSTs
stability towards γGT (in words) [4, 11]: very sensitive towards γGT mediated cleavage

γ-Glu[Cys(EA)-Src-OH]—OH [II]
inhibition of rat liver cytosolic GSTs (in words) [5]: comparable inhibition pattern to compound I
t½ of γGT mediated hydrolysis [4]: approximately equal to the half-life of GS-EA
